We go through 53 compounds from patent US8278455B2, “5- or 6-substituted benzimidazole derivatives as inhibitors of respiratory syncytial virus replication” (Janssen Pharmaceutica N.V., priority 2003, dated 2012).

As usually defined, the EC50 is the concentration at which the effect is half-maximal.

Molecules are shown by their SMILES.

One experiment relates to Respiratory Syncytial Virus. Nature of the experiment: In vitro screening for activity against Respiratory Syncytial Virus (MTT tetrazolium colorimetric assay, HeLa cells). It is filed as cell-based. The note with it: human respiratory syncytial virus, 168 h; protection against RSV cytopathology in HeLa cells, 7 days after infection; pEC50 = −log of EC50 in molar units. From the text: The percent protection against cytopathology caused by viruses (antiviral activity or EC50) achieved by tested compounds and their cytotoxicity (CC50) are both calculated from dose-response curves. The selectivity of the antiviral effect is represented by the selectivity index (SI), calculated by dividing the CC50 (cytotoxic dose for 50% of the cells) by the EC50 (antiviral activity for 50% of the cells). The tables in the above experimental part list the category to which each of the prepared compounds belong. Compounds belonging to activity category “A” have an pEC50 (−log of EC50 when expressed in molar units) equal to or more than 7. Compounds belonging to activity category “B” have a pEC50 value between 6 and 7.
Automated tetrazolium-based […] assays were used for determination of EC50 and CC50 of test compounds. Flat-bottom, 96-well plastic microtiter trays were filled with 180 μl of Eagle's Basal Medium, supplemented with 5% FCS (0% for FLU) and 20 mM Hepes buffer. Subsequently, stock solutions (7.8× final test concentration) of compounds were added in 45 μl volumes to a series of triplicate wells so as to allow simultaneous evaluation of their effects on virus- and mock-infected cells. Five five-fold dilutions were made directly in the microtiter trays using a robot system. Untreated virus controls, and HeLa cell controls were included in each test. Approximately 100 TCID50 of Respiratory Syncytial Virus was added to two of the three rows in a volume of 50 μl. The same volume of medium was added to the third row to measure the cytotoxicity of the compounds at the same concentrations as those used to measure the antiviral activity. After two hours of incubation, a suspension (4×10^5 cells/ml) of HeLa cells was added to all wells in a volume of 50 μl. The cultures were incubated at 37° C. in a 5% CO2 atmosphere. Seven days after infection the cytotoxicity and the antiviral activity was examined spectrophotometrically. To each well of the microtiter tray, 25 μl of a solution of MTT (3-(4,5-dimethylthiazol-2-yl)-2,5-diphenyltetrazolium bromide) was added. The trays were further incubated at 37° C. for 2 hours, after which the medium was removed from each cup. Solubilization of the formazan crystals was achieved by adding 100 μl 2-propanol. Complete dissolution of the formazan crystals were obtained after the trays have been placed on a plate shaker for 10 min. Finally, the absorbances were read in an eight-channel computer-controlled photometer (Multiskan MCC, Flow Laboratories) at two wavelengths (540 and 690 nm). The absorbance measured at 690 nm was automatically subtracted from the absorbance at 540 nm, so as to eliminate the effects of non-specific absorption.
A general note: Tetrazolium dyes change colour on reduction, which living cells bring about.
In the case of `Cc1cccc(C(=O)Nc2ccc3nc(NC4CCN(C)CC4)n(Cc4nc(C)ccc4O)c3c2)c1` [Compound 65, N-[3-(3-hydroxy-6-methyl-pyridin-2-yl-methyl)-2-(1-methyl-piperidin-4-ylamino)-3H-benzoimidazol-5-yl]-3-methyl-benzamide], the EC50 is 63.1 nM.
On the same count and under the same terms, the result for `Cc1cccc(C(=O)Nc2ccc3c(c2)nc(NC2CCN(C)CC2)n3Cc2nc(C)ccc2O)c1` [Compound 78, N-[1-(3-hydroxy-6-methyl-pyridin-2-ylmethyl)-2-(1-methyl-piperidin-4-ylamino)-1H-benzoimidazol-5-yl]-3-methyl-benzamide] reads 126 nM.

Staying with this experiment, now noted: protection against RSV cytopathology in HeLa cells, 7 days after infection; pEC50 = −log of EC50 in molar units.
In turn, `Cc1ccc(O)c(Cn2c(NC3CCN(C)CC3)nc3ccc(CNc4cccc(C(N)=O)c4)cc32)n1` [Compound 58] gave an Activity of 7.3.
With `Cc1ccc(O)c(Cn2c(NC3CCN(C)CC3)nc3ccc(CN(CCN(C)C)Cc4ccccc4)cc32)n1.Cl` [Compound 59], the Activity was 7.3.
Regarding `Cc1ccc(O)c(Cn2c(NC3CCN(C)CC3)nc3ccc(CNc4ccc(C)c(F)c4)cc32)n1` [Compound 60], the Activity is on record as 7.3.
On the same count and under the same terms, with `COc1ccc(NCc2ccc3nc(NC4CCN(C)CC4)n(Cc4nc(C)ccc4O)c3c2)cc1OC` [Compound 61] the figure was 7.3.
Same read-out and setting: with `CCN(Cc1ccc2nc(NC3CCN(C)CC3)n(Cc3nc(C)ccc3O)c2c1)c1ccccc1` [Compound 62] the figure was 7.3; with `Cc1ccc(O)c(Cn2c(NC3CCN(C)CC3)nc3ccc(CNc4ccc(Br)cc4C)cc32)n1` [Compound 63], 7.3.
Still for that read-out and setting: with `Cc1ccc(O)c(Cn2c(NC3CCN(C)CC3)nc3ccc(CNc4ccc(Nc5ccccc5)cc4)cc32)n1` [Compound 64] the figure was 7.3.
In the case of `Cc1ccc(O)c(Cn2c(NC3CCN(C)CC3)nc3ccc(CNc4cccc(Oc5ccccc5)c4)cc32)n1` [Compound 66], the Activity was 7.2.
In the case of `COc1ccc(NCc2ccc3nc(NC4CCN(C)CC4)n(Cc4nc(C)ccc4O)c3c2)cc1F` [Compound 67], the Activity is recorded as 7.2.
In the case of `Cc1ccc(O)c(Cn2c(NC3CCN(C)CC3)nc3ccc(CNc4ccc(Br)c(C)c4)cc32)n1` [Compound 68], the Activity worked out at 7.2.
As for `Cc1ccc(O)c(Cn2c(NC3CCN(C)CC3)nc3ccc(CNc4ccc(Br)c(F)c4)cc32)n1` [Compound 69], the Activity was found to be 7.2.
Compound `Cc1ccc(O)c(Cn2c(NC3CCN(C)CC3)nc3ccc(CNc4ccc(Cl)cc4Cl)cc32)n1` [Compound 70] yielded an Activity of 7.2.
On the same count and under the same terms, with `Cc1ccc(O)c(Cn2c(NC3CCN(C)CC3)nc3ccc(CNc4ccc(C(F)(F)F)cc4)cc32)n1` [Compound 71] the figure was 7.2; with `CCOC(=O)c1ccccc1NCc1ccc2nc(NC3CCN(C)CC3)n(Cc3nc(C)ccc3O)c2c1` [Compound 72], 7.1.
The same measure, in the same setting: the result for `Cc1ccc(NCc2ccc3nc(NC4CCN(C)CC4)n(Cc4nc(C)ccc4O)c3c2)c(Cl)c1` [Compound 73] reads 7.1.
The same measure, in the same setting: the result for `CCc1cc(Br)ccc1NCc1ccc2nc(NC3CCN(C)CC3)n(Cc3nc(C)ccc3O)c2c1` [Compound 74] reads 7.1.
In the case of `Cc1ccc(O)c(Cn2c(NC3CCN(C)CC3)nc3ccc(CNc4c(C)cccc4C)cc32)n1` [Compound 75], the Activity worked out at 7.
On to `Cc1ccc(O)c(Cn2c(NC3CCN(C)CC3)nc3ccc(CNc4ccc(C(C)C)cc4)cc32)n1` [Compound 76], for which the Activity was 7.
The same measure, in the same setting: the result for `Cc1ccc(O)c(Cn2c(NC3CCN(C)CC3)nc3ccc(CNc4cc(Cl)c(Cl)cc4Cl)cc32)n1` [Compound 77] reads 7; that for `Cc1ccc(O)c(Cn2c(NC3CCN(C)CC3)nc3ccc(Cn4ccnc4)cc32)n1` [Compound 79], 6.9; that for `Cc1ccc(O)c(Cn2c(NC3CCN(C)CC3)nc3ccc(CN(Cc4ccccc4)c4ccccc4)cc32)n1` [Compound 80], 6.9.
`Cc1ccc(O)c(Cn2c(NC3CCN(C)CC3)nc3ccc(CN4CCc5cc(Br)ccc54)cc32)n1` [Compound 81]: the Activity worked out at 6.9.
On the same count and under the same terms, the result for `Cc1ccc(O)c(Cn2c(NC3CCN(C)CC3)nc3ccc(CNc4c(C)cccc4C(C)C)cc32)n1` [Compound 82] reads 6.9; that for `Cc1ccc(O)c(Cn2c(NC3CCN(C)CC3)nc3ccc(CNc4ccc(Cl)cc4Br)cc32)n1` [Compound 83], 6.9; that for `Cc1ccc(CCc2ccc3nc(NC4CCN(C)CC4)n(Cc4nc(C)ccc4O)c3c2)cc1` [Compound 84], 6.8.
Still for that read-out and setting: with `Cc1ccc(O)c(Cn2c(NC3CCN(C)CC3)nc3ccc(CN(CCO)Cc4ccccc4)cc32)n1` [Compound 85] the figure was 6.8; with `Cc1ccc(O)c(Cn2c(NC3CCN(C)CC3)nc3ccc(C(O)c4ccccc4)cc32)n1` (centres unmarked) [Compound 86], 6.8; with `Cc1ccc(O)c(Cn2c(NC3CCN(C)CC3)nc3ccc(CNc4c(C)cc(Br)cc4C)cc32)n1` [Compound 87], 6.8.
`Cc1cc(C)c(NCc2ccc3nc(NC4CCN(C)CC4)n(Cc4nc(C)ccc4O)c3c2)c(Cl)c1` [Compound 88] had an Activity of 6.8.
Same read-out and setting: with `Cc1ccc(O)c(Cn2c(NC3CCN(C)CC3)nc3ccc(CNc4ccc(Br)cc4Cl)cc32)n1` [Compound 89] the figure was 6.8.
In turn, `Cc1ccc(O)c(Cn2c(NC3CCN(C)CC3)nc3cc(NC(=O)c4ccccc4)ccc32)n1` [Compound 90] gave an Activity of 6.7.
As to `Cc1ccc(O)c(Cn2c(NC3CCN(C)CC3)nc3ccc(CNc4cc(C)c(C)cc4S)cc32)n1` [Compound 91], the Activity is recorded as 6.7.
In turn, `Cc1ccc(O)c(Cn2c(NC3CCN(C)CC3)nc3ccc(CO)cc32)n1` [Compound 92] returned an Activity of 6.6.
As for `Cc1ccc(O)c(Cn2c(NC3CCN(C)CC3)nc3ccc(CNc4ccc(Br)c5ccccc45)cc32)n1` [Compound 94], the Activity is 6.6.
`Cc1cc(C)c(NCc2ccc3nc(NC4CCN(C)CC4)n(Cc4nc(C)ccc4O)c3c2)c(C)c1` [Compound 96]: the Activity is 6.6.
Compound `Cc1ccc(O)c(Cn2c(NC3CCN(C)CC3)nc3ccc(CN4CCOC(CCO)C4)cc32)n1` (centres unmarked) [Compound 97] showed an Activity of 6.6.
On the same count and under the same terms, with `Cc1ccc(O)c(Cn2c(NC3CCN(C)CC3)nc3ccc(CN4CCOCC4)cc32)n1` [Compound 98] the figure was 6.5; with `Cc1ccc(O)c(Cn2c(NC3CCN(C)CC3)nc3ccc(/C=C/c4ccccc4)cc32)n1` [Compound 99], 6.4; with `Cc1ccc(O)c(Cn2c(NC3CCN(C)CC3)nc3cc(/C=C/c4ccccc4)ccc32)n1` [Compound 100], 6.4.
`COCCN(CCOC)Cc1ccc2nc(NC3CCN(C)CC3)n(Cc3nc(C)ccc3O)c2c1` [Compound 102]: the Activity is 6.4.
Still for that read-out and setting: the result for `Cc1cccc(/C=C/c2ccc3nc(NC4CCN(C)CC4)n(Cc4nc(C)ccc4O)c3c2)c1` [Compound 103] reads 6.3; that for `Cc1cccc(/C=C/c2ccc3c(c2)nc(NC2CCN(C)CC2)n3Cc2nc(C)ccc2O)c1` [Compound 104], 6.2; that for `Cc1ccc(O)c(Cn2c(NC3CCN(C)CC3)nc3ccc(CN(C)CCc4ccccc4)cc32)n1` [Compound 105], 6.2.
Still for that read-out and setting: the result for `Cc1ccc(O)c(Cn2c(NC3CCN(C)CC3)nc3ccc(NC(=O)CCc4ccccc4)cc32)n1` [Compound 106] reads 6.1; that for `Cc1ccc(O)c(Cn2c(NC3CCN(C)CC3)nc3ccc(NC(=O)Cc4ccccc4)cc32)n1` [Compound 107], 6.1; that for `Cc1ccc(O)c(Cn2c(NC3CCN(C)CC3)nc3ccc(NC(=O)Cc4ccccn4)cc32)n1` [Compound 108], 6.
For the compound `CCCCN(CCO)Cc1ccc2nc(NC3CCN(C)CC3)n(Cc3nc(C)ccc3O)c2c1` [Compound 109], the Activity stood at 6.
In turn, `Cc1ccc(O)c(Cn2c(NC3CCN(C)CC3)nc3ccc(CNCCc4ccccc4)cc32)n1` [Compound 110] registered an Activity of 5.8.
Still for that read-out and setting: with `CCN(CCO)Cc1ccc2nc(NC3CCN(C)CC3)n(Cc3nc(C)ccc3O)c2c1` [Compound 111] the figure was 5.6.
Still for that read-out and setting: the result for `Cc1ccc(O)c(Cn2c(NC3CCN(C)CC3)nc3ccc(C(=O)Nc4ccccc4)cc32)n1` [Compound 112] reads 5.5; that for `Cc1ccc(O)c(Cn2c(NC3CCN(C)CC3)nc3cc(NC(=O)Cc4ccccn4)ccc32)n1` [Compound 113], 5.5.
